By Ki is commonly meant a measure of affinity in units of concentration, obtained from inhibition or displacement. Read a low Ki as tighter binding.

In ChEMBL document CHEMBL5728584, “Bicyclic amide compounds and methods of use thereof” (2021) one finds Ki data, which are given here for 1 compound.

The target of the test is T1, Receptor-interacting serine/threonine-protein kinase 1 (Homo sapiens, UniProt Q13546).
T1 sequence (Q13546 whole entry): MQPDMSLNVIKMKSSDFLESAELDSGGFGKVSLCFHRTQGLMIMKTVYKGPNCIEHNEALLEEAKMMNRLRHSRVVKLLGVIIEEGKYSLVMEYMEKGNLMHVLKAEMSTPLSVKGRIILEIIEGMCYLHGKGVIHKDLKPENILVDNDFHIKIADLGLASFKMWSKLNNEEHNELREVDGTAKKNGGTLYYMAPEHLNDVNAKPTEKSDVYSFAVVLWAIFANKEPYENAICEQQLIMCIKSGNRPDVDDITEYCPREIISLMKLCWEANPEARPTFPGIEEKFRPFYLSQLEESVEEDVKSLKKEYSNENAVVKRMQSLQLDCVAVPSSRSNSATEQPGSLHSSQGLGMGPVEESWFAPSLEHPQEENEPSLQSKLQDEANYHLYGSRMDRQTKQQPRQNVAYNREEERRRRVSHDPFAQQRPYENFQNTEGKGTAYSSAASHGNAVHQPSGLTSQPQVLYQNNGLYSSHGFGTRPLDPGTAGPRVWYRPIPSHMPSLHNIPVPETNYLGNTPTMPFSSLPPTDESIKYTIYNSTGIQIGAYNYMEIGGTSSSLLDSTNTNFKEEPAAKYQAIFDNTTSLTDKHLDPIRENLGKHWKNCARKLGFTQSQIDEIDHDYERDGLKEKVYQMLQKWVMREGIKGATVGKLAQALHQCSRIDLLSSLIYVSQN
Kind of test: Biochemical Assay: The ability of the receptor interacting protein kinase (RIPK1) to catalyze the hydrolysis of adenosine-5′-triphosphate (ATP) is monitored using the Transcreener ADP (adenosine-5′-diphosphate) assay (BellBrook Labs). Purified human RIP1 kinase domain (2-375) (50 nM) derived from a baculovirus-infected insect cell expression system is incubated with test compounds for 2 hours in 50 mM Hepes buffer (pH 7.5) containing 30 mM MgCl2, 1 mM dithiothreitol, 50 uM ATP, 0.002% Brij-35, and 0.5% dimethyl sulfoxide (DMSO). Reactions are quenched by the addition of 1× Bell Brooks Stop buffer B (20 mM Hepes (ph7.5), 40 mM ethylenediaminetetraacetic acid and 0.02% Brij-35) containing an additional 12 mM EDTA and 55 ug/mL ADP2 antibody and 4 nM ADP-AlexaFluor® 633 tracer. The tracer bound to the antibody is displaced by the ADP generated during the RIP1K reaction, which causes a decrease in fluorescence polarization that is measured by laser excitation at 633 nm with a FP microplate reader M1000. (In general: In fluorescence polarisation assays a small probe gives low polarisation when free and higher when bound to something large.)

Turning to `O=C(c1nc2n(n1)CCOC2c1ccccc1)N1CC(F)C1` (racemic), affinity was put at a Ki of 2100 nM.
